Test results reported in US6441049B2, “Method of treating neurodegenerative disorders via inhibition of amyloid beta peptide binding” (Ortho-McNeil Pharmaceutical, Inc., priority 1998, dated 2002).
Bridge positions count the residues as written; N and C are the ends.

Key:
Aβ aggregation [1] = molecular target: T1, Aβ aggregation (Homo sapiens, UniProt P05067); experiment: Aβ aggregation assay on Synthaloid plates with labelled Aβ1-40; assay type: biochemical
T1 construct: 100 nM of fluo-Aβ1-40 in 100 μl of each well of the 96-well Synthaloid plate; purchased Amersham Pharmacia Biotech (125I-Aβ1-40); Advanced Bioconcepts (fluo-Aβ1-40)
T1 sequence (P05067 672-711 limits assumed): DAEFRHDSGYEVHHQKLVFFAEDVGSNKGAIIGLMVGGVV

[2] = molecular target: 206-216 stretch of the human α7 nAChR (Homo sapiens, UniProt P36544)
Protocol: A 2-5 ug quantity of the 11 amino acid peptide comprised of the 206-216 stretch of the α7 nAChR (N-Ac, C(O)NH2) are added to a 96-well microtiter plate in 50 mL 10 mM HEPES, pH 7.4, or any buffer 50 ul. ^125I-β-amyloid1-40 (2000 Ci/mmol, 50 pM) was added to the wells in the presence and absence of inhibitors (1 uM to 10 uM) dissolved in 1 uL of 30% or 100% DMSO. Unbound ligands were removed and bound radioactivity was measured using a Microbeta liquid scintillation counter.

Aβ aggregation [3] = molecular target: T1, Aβ aggregation; experiment: Aβ aggregation assay on Synthaloid plates with labelled Aβ1-40; assay type: biochemical; remark: listed apart in the source
Protocol: Aβs are known to form aggregates leading to the formation of amyloid plaques that are characteristic of Alzheimer's disease. […] We have validated this aggregation assay using both ^125I-Aβ1-40 and fluo-Aβ1-40 in a buffer containing 50 mM HEPES, pH 7.4, 0.1% BSA, 10% FCS and protease inhibitors. About 500 pM of ^125I-Aβ1-40 or 100 nM of fluo-Aβ1-40 in 100 μl of each well of the 96-well Synthaloid plate was allowed to incubate for 2.5 hr at room temperature in the presence or absence of inhibitors. At the end of the incubation, unbound protein in the wells was removed by three washes using the above buffer. The amount of bound protein which represented Aβ aggregation was measured either by scintillation counting or fluorescence measurements.

[4] = molecular target: T2, alpha-7 nAChRs (Homo sapiens); experiment: 125I-Aβ1-40 binding to alpha-7 nAChRs (SK-N-MC cell membranes) on wheat germ agglutinin SPA beads; details: read-out: IC50, inhibition of 125I-Aβ1-40 binding to SK-N-MC cells
T2 construct: alpha-7 nAChR contained SK-N-MC cell membranes were immobilized; endogenous in cells; host or cells: SK-N-MC cell membranes
T2 sequence (P05067 672-711): as the sequence (P05067 672-711 limits assumed) above
Protocol: Alpha-7 nAChRs were immobilized on wheat germ agglutinin coupled yittrium SPA beads and allowed to incubate with ^125I-Aβ1-40 in the presence of various concentrations of cold Aβ1-40 or Aβ1-42.

[5] = test system: acetylcholine release from guinea pig hippocampus synaptosomes; experiment: K+-evoked 3H-acetylcholine release from synaptosomes, effect of Aβs; assay type: cell-based
Protocol: Synaptosomes from guinea pig hippocampus were incubated with 0.1 μM ^3H-choline and then subjected to repeated washes to remove unincorporated ^3H-choline. The synaptosomes were treated with 65 mM K^+ for 30 seconds to elicit 3H-acetylcholine release.

[6] = molecular target: α7 subtype nAChR homomers (Homo sapiens, UniProt P36544); details: cited from earlier work
Chain of α7 subtype nAChR homomers (P36544 23-502): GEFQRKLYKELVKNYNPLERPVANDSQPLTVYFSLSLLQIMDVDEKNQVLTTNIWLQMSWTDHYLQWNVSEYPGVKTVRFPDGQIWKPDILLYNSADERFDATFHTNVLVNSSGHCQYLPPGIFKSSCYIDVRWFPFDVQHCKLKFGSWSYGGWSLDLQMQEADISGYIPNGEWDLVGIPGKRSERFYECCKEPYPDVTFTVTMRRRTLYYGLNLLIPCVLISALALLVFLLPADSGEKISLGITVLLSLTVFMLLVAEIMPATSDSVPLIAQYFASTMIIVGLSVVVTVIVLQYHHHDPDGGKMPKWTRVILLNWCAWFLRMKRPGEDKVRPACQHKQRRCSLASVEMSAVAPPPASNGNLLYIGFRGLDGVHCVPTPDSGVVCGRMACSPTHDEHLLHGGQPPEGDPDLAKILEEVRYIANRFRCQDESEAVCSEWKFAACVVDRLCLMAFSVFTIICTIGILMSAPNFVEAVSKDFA

[7] = test system: Aβ1-42 mediated inhibition of ACh release in rat cortical synaptosomes; experiment: Amelioration of the Aβ1-42 mediated inhibition of ACh release in rat cortical synaptosomes; assay type: cell-based

Row | Molecule | Inhibition of ligand binding to the 206-216 peptide [2] | Amelioration of the Aβ1-42 Meditated Inhibition of ACh Release in Rat Cortical Synaptosomes (%) ([7]; at 1 μM) | Amelioration of the Aβ1-42 Meditated Inhibition of ACh Release in Rat Cortical Synaptosomes (%) ([7]; at 10 μM) | other results
1 | CCCN(CCC)[C@@H]1Cc2c(O)ccc(O)c2C[C@H]1C (racemic) [Compound 9, 5,8-Dihydroxy-trans-2-di(N-propylamino)-3-methyl-1,2,3,4-tetrahydronaphthalene] | inhibited | – | – | Effect of prolonged incubation on amyloid aggregates (time course) (Aβ aggregation [1]): resulted in disaggregation; % α7 nAChR 206-216 Binding ([2]; […], inhibitors 1 uM to 10 uM): 94%; inhibition at 10 µM (Aβ aggregation [3]; 10 μM, read-out: % Inh Agg. (conc μM)): > 90%; IC50 (Aβ aggregation [3]; Synthaloid plate, 2.5 hr, room temperature, read-out: IC50, inhibition of Aβ aggregation): 10 nM; IC50 [4]: 0.3 nM; Effect on acetylcholine release of Aβ after pretreatment with compound ([5]; 10 nM compound and 100 pM of either Aβ1-40 and Aβ1-42 prior to K+ stimulation): no effect on acetylcholine release; % ACh Release at 10 μM ([5]; 10 μM): 94%; IC50 ([5]; Cavia porcellus, read-out: ACh Release (IC50)): 100 nM
2 | α-bungarotoxin [reference compound] | inhibited | – | – | Kd [6]: 0.65 to 1.7 nM
3 | Ac-SERFYECCKEP-NH2 [human alpha-7 nAChR206-216 Ac-SERFYECCKEP-NH2] (cysteine pairing not given here) | inhibited | 77% at 1 μM | 81% at 10 μM | –
4 | Ac-SERFYECCKEP-NH2 [human alpha-7 nAChR206-216 oxidized (cyclic) CC: Ac-SERFYECC] (disulfide 7-8 (inferred)) [206-216 peptide with oxidized (cyclic) CC] | – | 82% at 1 μM | 84% at 10 μM | –
5 | Ac-YECC-NH2 [human alpha-7 nAChR210-213] | – | 59% at 1 μM | 72% at 10 μM | –
